What follows are cell lines tested with CN1CCN(CC1)C2=CC(=C(C=C2)NC3=NC(=C(S3)C(=O)C4=C(C=CC=C4Cl)Cl)N)OC [XMD14-99] + C[C@]1(O)C[C@@H](c2nc(-c3ccc4ccc(-c5ccccc5)nc4c3)c3c(N)nccn32)C1 [Linsitinib] (partner 1 µM) (assay: relative viability (nuclei count vs DMSO), 5 days (fraction); higher = more cells survive). Settings: first compound 0.08 µM.
Summary of the method: (§1)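 Nuclei were stained with Hoechst during a one-step fixation (final 0.05% Triton X-100, 1% formaldehyde, 1 ug/ml Hoechst) carried out 5 days after dosing, then counted on 4× images. The cells, lung cancer lines in 1536-well plates, had been dosed by pin tool the day after seeding with one drug alone or a fixed anchor-drug dose plus five library-drug doses (not always all listed) in √10 steps. Relative viability is the nuclei count in treated wells divided by that in vehicle wells, and each value is the median of duplicate plates.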

| Cell Line | relative viability |
| --- | --- |
| SK-MES-1 | 1.08 |
| H3255 | 0.999 |
| COR-L23 | 0.865 |
| COR-L 105 | 0.924 |
| IA-LM | 0.648 |
| LOU-NH91 | 0.963 |
| NCI-H3122 | 1 |
| HOP-62 | 0.965 |
| A549 | 0.636 |
| NCI-H441 | 0.719 |
| NCI-H1395 | 1.04 |
| NCI-H1299 | 0.95 |
| NCI-H1793 | 0.9 |

Same assay, conditions: first compound 0.8 µM

| Cell Line | relative viability |
| --- | --- |
| NCI-H838 | 0.932 |
| EBC-1 | 0.77 |
| NCI-H1703 | 0.888 |
| NCI-H2009 | 1.15 |
| NCI-H1993 | 0.66 |
| PC-14 | 0.932 |
| LCLC-103H | 1.13 |
| NCI-H596 | 1.05 |
| NCI-H2228 | 0.524 |
| EMC-BAC-2 | 0.81 |
| NCI-H2087 | 0.695 |
| Calu-6 | 0.918 |
| HCC-366 | 0.641 |
| NCI-H1666 | 0.834 |
| NCI-H647 | 1.12 |
| LK-2 | 0.369 |
| NCI-H2126 | 0.705 |
| SK-MES-1 | 1.04 |
| H3255 | 0.871 |
| COR-L23 | 0.806 |
| COR-L 105 | 0.665 |
| IA-LM | 0.308 |
| LOU-NH91 | 1 |
| NCI-H3122 | 1.02 |
| HOP-62 | 0.894 |
| A549 | 0.599 |
| NCI-H441 | 0.52 |
| NCI-H1395 | 1.02 |
| NCI-H1299 | 0.905 |
| NCI-H1793 | 0.979 |

Same assay, conditions: first compound 2.53 µM

| Cell Line | relative viability |
| --- | --- |
| NCI-H838 | 0.92 |
| EBC-1 | 0.762 |
| NCI-H1703 | 0.752 |
| NCI-H2009 | 1.19 |
| NCI-H1993 | 0.659 |
| PC-14 | 0.958 |
| LCLC-103H | 1 |
| NCI-H596 | 1.08 |
| NCI-H2228 | 0.476 |
| EMC-BAC-2 | 0.775 |
| NCI-H2087 | 0.679 |
| Calu-6 | 0.883 |
| HCC-366 | 0.781 |
| NCI-H1666 | 0.704 |
| NCI-H647 | 1.27 |
| LK-2 | 0.659 |
| NCI-H2126 | 0.668 |
| SK-MES-1 | 1.03 |
| H3255 | 0.765 |
| COR-L23 | 0.891 |
| COR-L 105 | 0.879 |
| IA-LM | 0.286 |
| LOU-NH91 | 0.924 |
| NCI-H3122 | 0.88 |
| HOP-62 | 0.794 |
| A549 | 0.629 |
| NCI-H441 | 0.528 |
| NCI-H1395 | 0.955 |
| NCI-H1299 | 0.908 |
| NCI-H1793 | 0.703 |

Same assay, conditions: first compound 8 µM

| Cell Line | relative viability |
| --- | --- |
| NCI-H838 | 0.681 |
| EBC-1 | 0.702 |
| NCI-H1703 | 0.57 |
| NCI-H2009 | 0.91 |
| NCI-H1993 | 0.749 |
| PC-14 | 0.684 |
| LCLC-103H | 0.973 |
| NCI-H596 | 1.04 |
| NCI-H2228 | 0.221 |
| EMC-BAC-2 | 0.676 |
| NCI-H2087 | 0.646 |
| Calu-6 | 0.732 |
| HCC-366 | 0.602 |
| NCI-H1666 | 0.625 |
| NCI-H647 | 0.929 |
| LK-2 | 0.471 |
| NCI-H2126 | 0.628 |
| SK-MES-1 | 0.754 |
| H3255 | 0.694 |
| COR-L23 | 0.478 |
| COR-L 105 | 0.703 |
| IA-LM | 0.281 |
| LOU-NH91 | 0.865 |
| NCI-H3122 | 0.678 |
| HOP-62 | 0.894 |
| A549 | 0.505 |
| NCI-H441 | 0.382 |
| NCI-H1395 | 0.784 |
| NCI-H1299 | 0.846 |
| NCI-H1793 | 0.738 |

Each cell line was assayed with N[C@@H]1CCCN(c2c(/C=C3\SC(=O)NC3=O)cccc2-c2ccccc2)C1 [AZD1208] + COc1cccc2cc(-c3nc([C@H]4CC[C@H](C(=O)O)CC4)n4ncnc(N)c34)[nH]c12 [OSI-027] (partner 0.5 µM) in the same assay as above. Settings: first compound 0.08 µM.
Summary of the method: as §1

| Cell Line | relative viability |
| --- | --- |
| NCI-H522 | 0.771 |
| NCI-H1623 | 0.445 |
| NCI-H838 | 0.378 |
| NCI-H1650 | 0.592 |
| NCI-H2009 | 0.63 |
| NCI-H1993 | 0.599 |
| PC-14 | 0.838 |
| LCLC-103H | 0.485 |
| NCI-H596 | 0.666 |
| NCI-H2228 | 0.5 |
| EMC-BAC-2 | 0.364 |
| NCI-H2087 | 0.518 |
| HCC-366 | 0.963 |
| NCI-H1666 | 0.779 |
| NCI-H647 | 0.665 |
| LK-2 | 0.184 |
| NCI-H2126 | 0.74 |
| NCI-H2342 | 0.575 |
| SK-MES-1 | 0.541 |
| H3255 | 0.506 |
| COR-L23 | 0.762 |
| COR-L 105 | 0.613 |
| LOU-NH91 | 0.737 |
| ChaGo-K-1 | 0.579 |
| NCI-H2170 | 0.751 |
| NCI-H3122 | 0.842 |
| HOP-62 | 0.863 |
| SW 900 | 0.678 |
